In ChEMBL document CHEMBL1201862, “PubChem BioAssay data set” (2004):
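All cell lines were grown in 96-well plates and treated with compound for 48 hours. Abbreviation: GI50, concentration required for 50% inhibition of growth.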 Calls of active or inactive are those of the source. No stated cut-off is given here; in the data, active = GI50 up to about 1.1 µM and inactive = higher.

Columns and labels:
Experiment in all cases: inhibition of tumour cell growth, NCI panel, 48 h
[1] = tested on: ACHN
[2] = tested on: CAKI-1
[3] = tested on: CCRF-CEM
[4] = tested on: HCT-116
[5] = tested on: HCT-15
[6] = tested on: K562
[7] = tested on: LOX IMVI
[8] = tested on: MCF7
[9] = tested on: MDA-N
[10] = tested on: Malme-3M
[11] = tested on: OVCAR-3
[12] = tested on: OVCAR-5
[13] = tested on: RXF 393
[14] = tested on: SF-268
[15] = tested on: SF-295
[16] = tested on: SK-MEL-2
[17] = tested on: T47D
[18] = tested on: UACC-257
[19] = tested on: UACC-62
[20] = tested on: UO-31

| SMILES | GI50 [1] | GI50 [2] | GI50 [3] | GI50 [4] | GI50 [5] [µM] | GI50 [6] | GI50 [7] | GI50 [8] | GI50 [9] | GI50 [10] | GI50 [11] | GI50 [12] | GI50 [13] | GI50 [14] | GI50 [15] | GI50 [16] | GI50 [17] | GI50 [18] | GI50 [19] | GI50 [20] |
| --- | --- | --- | --- | --- | --- | --- | --- | --- | --- | --- | --- | --- | --- | --- | --- | --- | --- | --- | --- | --- |
| COC(=O)c1c(C)c2c(c(C)c1C(=O)OC)-c1c(C)ccc3ccc(C)c-2c13 | > 100 µM (inactive) | > 100 µM (inactive) | 11.4 µM (inactive) | 50.1 µM (inactive) | 13 | 3.03 µM (inactive) | 12.1 µM (inactive) | > 78.3 µM (inactive) | 61.5 µM (inactive) | > 55.1 µM (inactive) | > 85.9 µM (inactive) | > 68.7 µM (inactive) | 15.6 µM (inactive) | 54 µM (inactive) | 11.4 µM (inactive) | > 100 µM (inactive) | 18.4 µM (inactive) | > 54.5 µM (inactive) | 47.5 µM (inactive) | 47.8 µM (inactive) |
| Cc1ccc(C2=Nc3cc(C)c(Cl)cc3S(=O)(=O)NN2)cc1 | 65.5 µM (inactive) | 27.9 µM (inactive) | 38.5 µM (inactive) | > 100 µM (inactive) | > 100 | 36.3 µM (inactive) | > 100 µM (inactive) | > 100 µM (inactive) | > 100 µM (inactive) | > 100 µM (inactive) | > 100 µM (inactive) | – | 72.1 µM (inactive) | 82.6 µM (inactive) | > 100 µM (inactive) | – | 54 µM (inactive) | > 100 µM (inactive) | 56.9 µM (inactive) | > 100 µM (inactive) |
| CC(C)=CCOc1cc(NC(=S)c2ccoc2C)ccc1Cl [UC 781] | > 100 µM (inactive) | > 100 µM (inactive) | 39.6 µM (inactive) | > 100 µM (inactive) | > 100 | – | 14.1 µM (inactive) | > 100 µM (inactive) | > 100 µM (inactive) | > 100 µM (inactive) | > 100 µM (inactive) | > 100 µM (inactive) | > 100 µM (inactive) | 45.5 µM (inactive) | > 100 µM (inactive) | > 100 µM (inactive) | 5.07 µM (inactive) | > 100 µM (inactive) | > 100 µM (inactive) | > 100 µM (inactive) |
| CNC(=O)CNC(=O)C(Cc1ccc(NC(=O)CCCCC(C)=O)cc1)NC(=O)C(CCC(=O)OCc1ccccc1)NC(=O)OC(C)(C)C (stereo unspecified) | > 100 µM (inactive) | > 100 µM (inactive) | – | > 100 µM (inactive) | > 100 | > 100 µM (inactive) | > 100 µM (inactive) | > 100 µM (inactive) | > 100 µM (inactive) | > 100 µM (inactive) | > 100 µM (inactive) | > 100 µM (inactive) | > 100 µM (inactive) | > 100 µM (inactive) | > 100 µM (inactive) | – | > 100 µM (inactive) | – | > 100 µM (inactive) | > 100 µM (inactive) |
| COc1cc2oc(-c3ccc(O)cc3)c(OC3OC(C)C(O)C(O)C3O)c(=O)c2c(O)c1OC (stereo unspecified) | 90.8 µM (inactive) | > 100 µM (inactive) | 35.6 µM (inactive) | 80.4 µM (inactive) | > 100 | 54.3 µM (inactive) | 57.7 µM (inactive) | 55.7 µM (inactive) | > 100 µM (inactive) | 96.2 µM (inactive) | > 100 µM (inactive) | > 100 µM (inactive) | > 100 µM (inactive) | > 100 µM (inactive) | > 100 µM (inactive) | > 100 µM (inactive) | > 100 µM (inactive) | > 100 µM (inactive) | 75.5 µM (inactive) | – |
| Cc1ccc2c(O)cc(-c3cccc4ccccc34)nc2n1 | 0.102 µM (active) | 0.353 µM (active) | 0.0251 µM (active) | < 0.0151 µM (active) | 0.0206 | < 0.01 µM (active) | 0.0229 µM (active) | 0.0256 µM (active) | < 0.01 µM (active) | < 0.01 µM (active) | < 0.0149 µM (active) | 0.0375 µM (active) | 0.497 µM (active) | 0.762 µM (active) | 0.0193 µM (active) | 0.0182 µM (active) | 67.8 µM (inactive) | – | 0.01 µM (active) | 0.189 µM (active) |
| NS(=O)(=O)c1ccc(-c2ccc([As](=O)(O)O)cc2)cc1 | > 100 µM (inactive) | > 100 µM (inactive) | – | > 100 µM (inactive) | > 100 | > 100 µM (inactive) | > 100 µM (inactive) | > 100 µM (inactive) | > 100 µM (inactive) | > 100 µM (inactive) | > 100 µM (inactive) | > 100 µM (inactive) | > 100 µM (inactive) | > 100 µM (inactive) | > 100 µM (inactive) | > 100 µM (inactive) | > 100 µM (inactive) | 32.6 µM (inactive) | > 100 µM (inactive) | > 100 µM (inactive) |
| Nc1cc2ncnn2c(SCC(=O)N/N=C/C(Br)=C\c2ccccc2)n1 | 16.9 µM (inactive) | 17.9 µM (inactive) | 5.77 µM (inactive) | 21.7 µM (inactive) | 18.1 | 12.8 µM (inactive) | 16 µM (inactive) | 14.7 µM (inactive) | 16.2 µM (inactive) | 12.1 µM (inactive) | 18.5 µM (inactive) | 22.1 µM (inactive) | 15.8 µM (inactive) | – | 21.8 µM (inactive) | – | 3.49 µM (inactive) | 9.62 µM (inactive) | 7.23 µM (inactive) | 15.5 µM (inactive) |
| CC1=C2C(=O)c3ccccc3C(=O)[C@H]2C[C@@H](N2CCCC2=O)O1 | 90.6 µM (inactive) | 77.3 µM (inactive) | 32.4 µM (inactive) | – | 49.2 | 49.8 µM (inactive) | 20.2 µM (inactive) | 12.9 µM (inactive) | 16.4 µM (inactive) | 17.4 µM (inactive) | 26.5 µM (inactive) | 19.4 µM (inactive) | 23.7 µM (inactive) | 48.1 µM (inactive) | 66.8 µM (inactive) | > 100 µM (inactive) | 22.8 µM (inactive) | 65.6 µM (inactive) | 33 µM (inactive) | > 100 µM (inactive) |
| CC(C)(C)OC(=O)NCCCCC1NC(=O)[C@@H]2Cc3c([nH]c4ccccc34)C(C3CCCCC3)N2C1=O (stereo partly specified) | 45.6 µM (inactive) | 56.6 µM (inactive) | – | 29.4 µM (inactive) | 36 | 30.8 µM (inactive) | 31.2 µM (inactive) | 30.6 µM (inactive) | 25.4 µM (inactive) | > 100 µM (inactive) | 10.6 µM (inactive) | > 100 µM (inactive) | 4.23 µM (inactive) | 54.1 µM (inactive) | 19.8 µM (inactive) | 26 µM (inactive) | 12.9 µM (inactive) | 35.7 µM (inactive) | 32.4 µM (inactive) | 35.1 µM (inactive) |
| CC(=O)OCC(=O)O[C@@H]1[C@H]2[C@@H](OC(=O)c3ccccc3)[C@@H](C)C[C@]2(O)[C@H](OC(C)=O)[C@@]2(C)C[C@]1(OC(C)=O)C[C@H]1C(=O)C(C)(C)[C@@H](OC(C)=O)[C@@H]12 | > 25 µM (inactive) | 17.1 µM (inactive) | – | > 25 µM (inactive) | > 25 | 1.48 µM (inactive) | > 25 µM (inactive) | > 25 µM (inactive) | 6.98 µM (inactive) | > 25 µM (inactive) | > 25 µM (inactive) | 10 µM (inactive) | > 25 µM (inactive) | > 25 µM (inactive) | 6.01 µM (inactive) | > 25 µM (inactive) | > 25 µM (inactive) | > 25 µM (inactive) | > 25 µM (inactive) | 0.912 µM (active) |
| C[C@@H]1CC(=O)[C@@]2(C)[C@](O)(CCC3O[C@]32C)[C@@]12CC(c1ccoc1)OC2=O (stereo partly specified) | 70.6 µM (inactive) | 91 µM (inactive) | 20.5 µM (inactive) | 34.5 µM (inactive) | 37.8 | 39.1 µM (inactive) | 35.2 µM (inactive) | 84.5 µM (inactive) | 33.5 µM (inactive) | 50.7 µM (inactive) | > 100 µM (inactive) | > 100 µM (inactive) | 31.8 µM (inactive) | – | > 100 µM (inactive) | > 100 µM (inactive) | > 100 µM (inactive) | > 100 µM (inactive) | 56.9 µM (inactive) | > 100 µM (inactive) |
| Cc1c(C2CCSc3ccccc3N2)sc2ccccc12 (stereo unspecified) | > 100 µM (inactive) | 52.5 µM (inactive) | – | 62.1 µM (inactive) | 74.5 | 51.5 µM (inactive) | > 100 µM (inactive) | 62.2 µM (inactive) | 39.8 µM (inactive) | 64.3 µM (inactive) | > 100 µM (inactive) | – | 86.5 µM (inactive) | > 100 µM (inactive) | > 100 µM (inactive) | > 100 µM (inactive) | 87.9 µM (inactive) | 99.8 µM (inactive) | > 100 µM (inactive) | 52.5 µM (inactive) |
| COc1ccc(C2(CC(C)C)CCNC2)cc1OC (stereo unspecified) | > 100 µM (inactive) | > 100 µM (inactive) | > 100 µM (inactive) | > 100 µM (inactive) | > 100 | > 100 µM (inactive) | > 100 µM (inactive) | 84.1 µM (inactive) | > 100 µM (inactive) | > 100 µM (inactive) | – | > 100 µM (inactive) | 41.9 µM (inactive) | 78.7 µM (inactive) | > 100 µM (inactive) | > 100 µM (inactive) | 31.5 µM (inactive) | > 100 µM (inactive) | > 100 µM (inactive) | 50.9 µM (inactive) |
| Cn1cnc(N)c(N=O)c1=O | > 10 µM (inactive) | > 10 µM (inactive) | > 10 µM (inactive) | > 10 µM (inactive) | > 10 | > 10 µM (inactive) | > 10 µM (inactive) | > 10 µM (inactive) | > 10 µM (inactive) | > 10 µM (inactive) | > 10 µM (inactive) | > 10 µM (inactive) | > 10 µM (inactive) | > 10 µM (inactive) | > 10 µM (inactive) | > 10 µM (inactive) | > 10 µM (inactive) | > 10 µM (inactive) | > 10 µM (inactive) | – |
